Results: a melting point compilation (Tetko et al.; mined from patent text by program, amines drawn as free bases though some values may be those of a salt)

Row | SMILES | melting point [°C]
1 | Fc1ccc(-c2ncc(Br)cn2)cc1F | 148
2 | N#CC1=C(C2CCCCC2=O)Nc2n[nH]cc2C1c1cccc2nonc12 (centres undefined) | > 270
3 | CN1CCCC(C2=C(C#N)C(c3cccc(C#N)c3Br)c3c[nH]nc3N2)C1 (centres undefined) | 174
4 | CC(=O)NC[C@H]1CN(c2cc(F)c(N3CCC(n4nnnc4CS(C)(=O)=O)CC3)c(F)c2)C(=O)O1 | 192
5 | Oc1cnccc1CCCOc1cccnc1Oc1cccc(Br)c1 | 116 to 118
6 | N#Cc1ccccc1Sc1ccccc1[N+](=O)[O-] | 166 to 167
7 | CCCc1c(C(=O)C(C)C)c2ccc(C(N)=O)cc2n1Cc1ccc(Cl)cc1 | 183 to 184
8 | CNC(=O)C(Cc1ccc(OC)cc1)NC(=O)C(CC(C)C)C(CC(=O)N1CCN(C)CC1)SC(C)=O (centres undefined) | 133 to 138
9 | Cc1cccc(Sc2nc(C#N)c(C#N)nc2Cl)c1 | 117 to 119
10 | N#Cc1nn(-c2c(Cl)cc(C(F)(F)F)cc2Cl)c(N)c1C1CC1(Br)Br (centres undefined) | 178 to 179
11 | O=C(Cc1c(-c2ccccc2)c2cc3c(cc2oc1=O)C(=O)OC3)Nc1ccc(F)cc1C(F)(F)F | 253 to 254
12 | N#Cc1cccc(C(Oc2ccccc2)Oc2ccccc2)n1 | 82 to 85
13 | N#Cc1ccc(CCCCCO)cc1 | 39 to 41
14 | COC(=O)c1nc(Br)nc(Br)c1Cl | 92 to 93
15 | OCC1OC(Oc2ccsc2Cc2ccc(OC(F)(F)F)cc2)C(O)C(O)C1O (centres undefined) | 144 to 145
16 | O=C(Nc1ccc(O[C@H]2CC[C@H](C(=O)O)CC2)cc1)c1nnc(Nc2cc(F)c(F)cc2F)o1 | 251 to 253
17 | CC(C)(C)c1cc(SC2CC(=O)OC2=O)cc(C(C)(C)C)c1O (centres undefined) | 92 to 93
18 | C#CC1(O)C=CC2C3CCC4=CC(=O)CC(O)C4C3CCC21CC (centres undefined) | 129 to 130
19 | CSc1nc2c(F)cccc2s1 | 30

Row | SMILES | melting point [°C]
20 | CCCCC(=O)OCC=C(C)CCC=C(C)CCC=C(C)CCC=C(C)CCC=C(C)CCC=C(C)CCC=C(C)CCC=C(C)CCC=C(C)C | 34 to 35
21 | CNc1nc(-c2cccc(N)c2)cs1 | 118 to 121
22 | NS(=O)(=O)c1ccc(CO)s1 | 70 to 71
23 | O[C@@H]1CCC[C@H]1Nc1ccc(Cl)c(Cl)c1 (relative stereo) | 167 to 168
24 | CCCCCC/C(=C\c1ccccc1)CNc1cccc(-c2ccnc3c(C(=O)c4cccs4)cnn23)c1 | 110 to 115
25 | COc1cn(-c2ccc(-n3cccn3)cc2F)nc(-c2ccnn2-c2cccc(OC(F)(F)F)c2)c1=O | 148 to 150
26 | CCC1(O)NC(=O)C2(c3ccc(Cl)cc3)CC12 (centres undefined) | 117 to 124
27 | Cc1cc(C(C)N(O)C(=O)NCCO)c(C)s1 (centres undefined) | 122 to 124
28 | CCCC1=C(C(=O)OCC)C(c2ccccc2[N+](=O)[O-])c2c[nH]nc2N1 (centres undefined) | 218
29 | CC(C)CN(C[C@H](O)COc1cccc2[nH]c3ccccc3c12)c1ccc(Oc2ccc(C(N)=O)cn2)cc1 | 126 to 142
30 | OCCN1C2CCC1CC(c1ccc3ccccc3c1)C2 (centres undefined) | 84 to 88
31 | Cc1cc(N2C=CC(O)CC2)nn2cnnc12 (centres undefined) | 171 to 173
32 | OC(Cn1cncn1)(c1ccc(F)cc1F)C1(SC(F)(F)F)CC1 (centres undefined) | 103
33 | Cc1ncc(Cn2c(S)nc3ccccc32)o1 | 153
34 | N[C@H]1CC[C@H](Nc2cc(C(F)(F)F)nc3c(C(F)(F)F)cccc23)CC1 | 173
35 | COC(=O)C(CCC#N)(CCC#N)C(=O)OC | 143
36 | O=C(O)CCCNC(=O)c1ccc(Cl)cc1O | 131 to 133
37 | CC(C)CC(=O)N[C@@H](CC(C)C)C(=O)N[C@@H](Cc1ccccc1)C(=O)CSCc1ccco1 | 108 to 115
38 | O=C1CCC2=C1C(c1ccc(F)c(Br)c1)C1=C(CCS1)N2 (centres undefined) | > 260

Row | SMILES | melting point [°C]
39 | CC(C)(C)Nc1c(NCc2cccc(F)c2)c(=O)c1=O | 295 to 297
40 | CCC1OC(Cn2cncn2)(c2ccc(Cl)cc2Cl)OC1C (centres undefined) | 109 to 113
41 | O=C(O)c1cncc(O)c1 | > 260
42 | CC(C)(O)c1cccn2c(-c3ccnc(NC4CCC(C(=O)N5CCC(O)CC5)CC4)n3)cnc12 (centres undefined) | 188 to 190
43 | COC(=O)c1cc(-n2cnnc2)c(C(F)(F)F)cc1N | 184 to 186
44 | CC(C)(C)OC(=O)NC1CCN(c2ccc(C#N)cc2)CC1 | 188 to 189
45 | CN(C(=O)OC(C)(C)C)C(S)=NC(=O)OC(C)(C)C | 118
46 | COc1ccc(/C=C/CCCCOc2ccc(C(=O)CCCC(=O)O)cc2CCC(=O)O)cc1 | 113 to 114
47 | CCOC(=O)c1csc2c1N(O)CCC2 | 252 to 253
48 | OCC1COC(Cn2cncn2)(c2ccc(Oc3ccccc3)cc2)O1 (centres undefined) | 111 to 112
49 | CNC(=O)Oc1ccc(NS(=O)(=O)c2ccc(C)cc2)c(C)c1 | 181 to 184
50 | Cc1c(-c2ncncc2Br)ssc1=S | 122
51 | Cc1nn2c(-c3cccc(C(F)(F)F)c3)ccnc2c1C#N | 149 to 150
52 | N=c1n(CCO)c2ccccc2n1-c1ccccc1 | 210 to 212
53 | COc1ccc2c(c1)C1Cc3ccccc3C1N2C (centres undefined) | 72
54 | CCCCCC(O)C1C(=O)NC2(C(O)C3C=CCCC3)C(=O)OC12C (centres undefined) | 144
55 | CCCONC(=O)c1cc(OC)cc(Oc2cccc(C(F)(F)F)c2)n1 | 75 to 77
56 | CC(CS(=O)(=O)c1ccccc1)C1CCC2C3CC=C4C(C)(C)C(O)CCC4(C)C3CCC12C (centres undefined) | 176 to 181
57 | O=C(Cl)c1ccc2c(c1I)OCO2 | 69 to 70

Next, values leading:

Row | melting point [°C] | SMILES
58 | 124 to 126 | COc1ccc(CC(=O)Nc2cc(Cl)c(Cl)cc2[N+](=O)[O-])cc1
59 | 100 to 101 | COC(=O)c1ccc(OC)c(N(C(C)=O)c2cc(Cl)cc(Cl)c2)c1
60 | 143 to 150 | CNC(=O)/C=C/c1ccc(C(=O)NCC(=O)N(C)c2ccc(Cl)c(COc3cccc4ccc(C)nc34)c2Cl)cc1
61 | 204 | CC(=O)OC1CSC(Oc2ccc(-c3ccc(Cl)nc3)nc2)C(OC(C)=O)C1OC(C)=O (centres undefined)
62 | 235 to 236 | C[C@@H](n1cnc2cc(C(N)=O)ccc2c1=O)[C@](O)(Cn1cncn1)c1ccc(F)cc1F
63 | 196 to 197 | Cc1cc(O)c(O)cc1S(=O)(=O)c1ccc(Cl)c([N+](=O)[O-])c1
64 | 126 | COC(=O)c1ccc2oc3ccccc3c2c1C(=O)OC
65 | 220 to 225 | COc1ccc(C(=CC(=O)N2CCOCC2)c2ccc(NC(=O)NS(=O)(=O)c3ccc(C)cc3)cc2)cc1OC
66 | 83 to 93 | COc1cc(OC)nc(-c2ccc(-c3ccccc3S(=O)(=O)Nc3onc(C)c3C)cc2)n1
67 | 188 to 190 | Cc1ccc(Nc2nc(CO)cs2)c(O)c1
68 | 108 | Cc1cc(-n2ccnc2)c2cccc(OCc3c(Cl)ccc(S(=O)(=O)N4CCC[C@H]4C(=O)NCCN4CCCCC4)c3Cl)c2n1
69 | 134 to 136 | COc1ccc(OCc2ccc(OCc3nc(-c4ccccc4)oc3C)cc2)c(CC(=O)O)c1
70 | 85 to 86 | COC(=O)c1ncn(CCCc2ccc(OCc3coc(/C=C/c4ccccc4)n3)cc2)c1C(=O)OC
71 | 218 to 219 | O=C(O)Cc1nc(-c2ccc(Cl)cc2)oc1-c1ccsc1
72 | 154 to 156 | NS(=O)(=O)c1ccc(N2CC(CO)OC2=O)cc1 (centres undefined)
73 | 101 to 103 | COc1ccc(CCNCC(O)c2cccc(Cl)c2)cc1 (centres undefined)
74 | 272 to 273 | COc1ccccc1N1CCN(c2nc3c(cc2F)c(=O)c(C(=O)O)cn3-c2ccc(F)cc2)CC1
75 | 224 to 226 | Cc1nc(NC(=O)c2cccnc2)sc1C(=O)NCc1ccccc1
76 | 110 to 111 | CC(=O)OC1=C(OC(C)=O)C(=O)c2cc(Cl)ccc2C1=O
77 | 165 to 166 | Clc1ccccc1C=Nc1c2c(nc3ccccc13)CCCC2
78 | 248 to 250 | Cc1c(C(=O)NCC(=O)O)oc2cc(-c3ccc(Cn4c(C)nc5ccccc54)cc3)ccc12

Row | melting point [°C] | SMILES
79 | 237 to 239 | O=S(=O)(c1ccc(O)c(Br)c1)N1c2ccc(Br)cc2-c2ccccc2C1c1ccccc1 (centres undefined)
80 | 218 to 220 | CC(OCc1cc2nc(Cl)ccc2n1S(=O)(=O)c1ccc2nc(N)sc2c1)C(=O)O (centres undefined)
81 | 234 to 238 | O=c1c2c(Cc3cccs3)n[nH]c2c2cccnc2n1-c1cccc(OC(F)(F)F)c1
82 | 95.5 | Clc1ccccc1-c1nc(Cl)n(-c2ccccc2Cl)n1
83 | 118 | Cc1cc(-n2cncn2)c2cccc(OCc3c(Cl)ccc(S(=O)(=O)N4CCC[C@H]4C(=O)NCC4CCN(Cc5ccccn5)CC4)c3Cl)c2n1
84 | 117 to 118 | CCc1nc(-c2cccc(C)c2)c(-c2ccnc(NC3CCCC3)c2)s1
85 | 124 to 127 | COc1ccc(-c2nc(CC(N)=O)sc2-c2ccc(OC)cc2)cc1
86 | 140 to 150 | CC(=O)N(N=Cc1c(Cl)cccc1Cl)c1nncn1N(C(C)=O)C(C)=O
87 | 186 | COc1cc(N=C(N)c2cccs2)ccc1N1CCN(C(=O)NCCCCC2CCSS2)CC1 (centres undefined)
88 | 186 to 190 | COc1cn(-c2ccc(-n3cccn3)cc2F)nc(-c2ccnn2-c2cccc(Cl)c2)c1=O
89 | 201 to 202 | CCOC(=O)C(C)(C)n1c(=O)[nH]c2cc(Cl)ccc2c1=O
90 | 233 to 235 | COc1ccc(CNc2nc(CN3CCC(C(=O)O)CC3)nc3oc4c(c23)CCCC4)cc1Cl
91 | 112 to 114 | CC(C)C(=O)NC1=NC(=CCC(=O)Nc2ccc(Cl)cc2)CS1
92 | 174 to 176 | COc1ccc(C(=O)Nc2c(Cl)cc(CO)cc2Cl)cc1OC1CCCC1
93 | 86 to 102 | CCOC(Cc1ccc(OCCN2c3ccccc3Oc3ccccc32)cc1)C(=O)O (centres undefined)
94 | 149 to 151 | O=C(O)C(O)N1C(=O)CCN1c1ccc(Cl)cc1 (centres undefined)
95 | 152 | COc1ccc(C2c3cccc(O)c3C(=O)c3c(O)cccc32)c(OC)c1
96 | 103 to 104 | CCOc1cccc(-c2cc3n(n2)CCc2ccccc2-3)c1
97 | 95 to 96 | Cc1ccc(OCCN2CCN(c3cc(Cl)nnc3Cl)CC2)cc1
98 | 168 to 171 | CC(=O)N(O)C(C)c1ccc2c(c1)Cc1ccccc1-2 (centres undefined)
99 | 218 to 220 | CC(C)CCNC(=O)c1ccc(-c2nn(Cc3cccc(Cl)c3)c(=S)[nH]2)cc1
